Data taken from the supplement of paper PMC4862054.

Key:
Conditions in all cases: 72 h
CAL-51 = tested on: CAL-51
How it was run: (§1)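 Breast cancer cell lines (20 µl suspension) were seeded into 384-well plates holding compound at 5 concentrations in 10-fold steps over a compound-specific 10,000-fold range, then incubated 72 h. Cell death was read first by CellTox Green fluorescence (485/520 nm), then viability by CellTiter-Glo luminescence after 10 min at room temperature. Each plate was normalised to 0.1 % DMSO and a positive kill control. EC50 was fitted from the dose-response curves and censored at the top concentration.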

BT-474 = tested on: BT-474
How it was run: as §1

MDA-MB-468 = tested on: MDA-MB-468
How it was run: as §1

MDA-MB-453 = tested on: MDA-MB-453
How it was run: (§2)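 Breast cancer cell lines in 20 µl suspension were seeded onto 384-well plates pre-loaded with compound dissolved in 5 µl medium, then incubated 72 h. For viability, 2.5 µl CellTiter-Blue was added for 2 h at 37 °C and fluorescence read at 560/590 nm. Each plate was normalised to vehicle and a positive kill control and checked by Z'-factor. EC50 comes from the fitted percent-inhibition dose-response curve, censored at the highest concentration; rows with zero drug sensitivity score were dropped.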

CAL-148 = tested on: CAL-148
How it was run: as §2

CAL-120 = tested on: CAL-120
How it was run: as §2

MDA-MB-231 = tested on: MDA-MB-231
How it was run: as §2

HCC1937 = tested on: HCC1937
How it was run: as §2

| EC50, CellTiter-Glo (BT-474) | EC50, CellTiter-Glo (MDA-MB-468) | EC50, CellTiter-Blue viability (MDA-MB-453) | EC50, CellTiter-Blue viability (MDA-MB-231) | EC50, CellTiter-Blue viability (HCC1937) | SMILES | EC50, CellTiter-Glo (CAL-51) | EC50, CellTiter-Blue viability (CAL-148) | EC50, CellTiter-Blue viability (CAL-120) |
| --- | --- | --- | --- | --- | --- | --- | --- | --- |
| 244 nM | > 1000 nM | 282 nM |  |  | Cc1ccc(C(=O)Nc2ccc(CN3CCN(C)CC3)c(C(F)(F)F)c2)cc1C#Cc1cnc2cccnn12 [Ponatinib] | 844 nM | 295 nM | 190 nM |
| 43.4 nM | 93.2 nM | 182 nM | 59.2 nM | 58 nM | CN[C@@H]1C[C@H]2O[C@@](C)([C@@H]1OC)n1c3ccccc3c3c4c(c5c6ccccc6n2c5c31)C(=O)N[C@H]4O [UCN-01] | 77.5 nM | 2350 nM | 24.5 nM |
| 2810 nM | 1730 nM |  | 1020 nM | 3700 nM | COc1cc([C@@H]2c3cc4c(cc3[C@@H](O[C@@H]3O[C@@H]5CO[C@@H](C)O[C@H]5[C@H](O)[C@H]3O)[C@H]3COC(=O)[C@H]23)OCO4)cc(OC)c1O [Etoposide] | 1090 nM | 1130 nM | 2260 nM |
|  |  | 5.76 nM | 0.34 nM | 0.62 nM | Cc1ccc(C(=O)N(CCCN)[C@@H](c2oc3cc(Cl)ccc3c(=O)c2Cc2ccccc2)C(C)C)cc1 | 0.24 nM | 5.81 nM | 0.57 nM |
| 76.3 nM | 26.7 nM | 9.96 nM | 67.6 nM | 26.3 nM | CCC1=C[C@@H]2CN(C1)Cc1c([nH]c3ccccc13)[C@@](C(=O)OC)(c1cc3c(cc1OC)N(C)[C@H]1[C@@](O)(C(=O)OC)[C@H](OC(C)=O)[C@]4(CC)C=CCN5CC[C@]31[C@@H]54)C2 [Vinorelbine] | 118 nM | 49.1 nM | 22.5 nM |
|  |  | 874 nM |  |  | COc1cc2nccc(Oc3ccc(NC(=O)C4(C(=O)Nc5ccc(F)cc5)CC4)cc3)c2cc1OC [Cabozantinib] |  | 558 nM |  |
|  |  | 6.32 nM | 156 nM | 29.6 nM | CCN(CCCOc1ccc2c(Nc3cc(CC(=O)Nc4cccc(F)c4)[nH]n3)ncnc2c1)CCOP(=O)(O)O [Barasertib] |  | 7.07 nM | 30 nM |
| 48.8 nM | 32 nM | 11.2 nM | 38.9 nM | 7.56 nM | CO[C@H]1/C=C\C=C(/C)C(=O)NC2=CC(=O)C(NCCN(C)C)=C(C[C@@H](C)C[C@H](OC)[C@H](O)[C@@H](C)/C=C(\C)[C@@H]1OC(N)=O)C2=O [Alvespimycin] | 48 nM | 27.6 nM | 27.4 nM |

Further lines, the molecule ahead of its results:

| SMILES | EC50, CellTiter-Glo (BT-474) | EC50, CellTiter-Glo (MDA-MB-468) | EC50, CellTiter-Blue viability (MDA-MB-453) | EC50, CellTiter-Blue viability (MDA-MB-231) | EC50, CellTiter-Blue viability (HCC1937) | EC50, CellTiter-Glo (CAL-51) | EC50, CellTiter-Blue viability (CAL-148) | EC50, CellTiter-Blue viability (CAL-120) |
| --- | --- | --- | --- | --- | --- | --- | --- | --- |
| C[C@@H](Oc1cc(-c2cnn(C3CCNCC3)c2)cnc1N)c1c(Cl)ccc(F)c1Cl [Crizotinib] |  | > 1000 nM | 4070 nM | 1360 nM | 2280 nM |  | 3570 nM | 2640 nM |
| CNCc1ccc(-c2[nH]c3cc(F)cc4c3c2CCNC4=O)cc1 [Rucaparib] |  | 1710 nM | 6180 nM | 683 nM | 945 nM |  | 7670 nM |  |
| CC(C)Cn1cnc2c(N)nc3ccccc3c21 [Imiquimod] |  |  | 6690 nM |  |  |  |  |  |
| C#Cc1cccc(Nc2ncnc3cc(OCCOC)c(OCCOC)cc23)c1 [Erlotinib] |  |  | 8340 nM |  | 937 nM | 1130 nM | 3630 nM | 2450 nM |
| NC(=O)Nc1cc(-c2cccc(F)c2)sc1C(=O)N[C@H]1CCCNC1 [AZD 7762] |  |  | 232 nM | 347 nM | 613 nM |  | 661 nM | 560 nM |
